Laboratory results: US20250214966A1, “Crystalline Salt Form Of A SHP2 Inhibitor” (Array BioPharma Inc., priority 2022, published 2025)
Where a name gives a salt, the structure may show the parent alone. Read-outs that look alike come from different tables or passages of the source.

Key:
Assay type in all cases: physicochemical
[1] = Physical stability (PXRD) after storage at 70° C.
Method: Physical Stability (PXRD) (Table 12): Powder X-ray diffraction analysis was conducted using a Bruker AXS D8 Endeavor diffractometer equipped with a Cu radiation source. The divergence slit was set at 10 mm continuous illumination. Diffracted radiation was detected by a PSD-Lynx Eye detector, with the detector PSD opening set at 2.99 degrees. The X-ray tube voltage and amperage were set to 40 kV and 40 mA respectively. Data was collected in the Theta-Theta goniometer at the Cu wavelength from 3.0 to 40.0 degrees 2-Theta using a step size of 0.02 degrees and a step time of 0.3 second. The antiscatter screen was set to a fixed distance of 1.5 mm. Samples were rotated at 15/min during collection. Samples were prepared by placing them in a silicon low background sample holder and rotated during collection. Data were collected using Bruker DIFFRAC Plus software and analysis was performed by EVA diffract plus software. A Small divot sample holder was used.
Physical Stability (PXRD) (Table 13): The Rigaku MiniFlex 6G Diffractometer used is equipped with a Cu radiation source. Diffracted radiation was detected by a D/teX Ultra2 detector. The X-ray tube voltage and amperages were set to 40 kV and 15 mA respectively. Data was collected in the Miniflex goniometer at the Cu wavelength from 3.0 to 45.0° 20 using a step width of 0.02° and a step speed of 2.00°/minute. The incident slit box was set to 1.25° and the length limiting slit was set at 10 mm. The sample was rotated at 10 RPM during collection. The data was analyzed using Rigaku software SmartLab Studio II.
The sample was prepared by placement into a silicon low background sample holder (0.2 indent plate). The sample was confirmed to be level and packed prior to measurement. The sample was not ground (by mortar and pestle, or by any other means) prior to placement in the sample holder.

[2] = Dynamic vapor sorption, hygroscopicity (Tables 12 and 13); conditions: DVS
Method: Dynamic Vapor Sorption (“DVS”) (Table 12): The microbalance was calibrated using a 100 mg standard weight. The relative humidity sensor was calibrated at 5.0, 11.3, 32.8, 52.8, 75.3, and 84.3% RH (25° C.) using saturated salt solutions, as well as 80% RH (25° C.) using polyvinylpyrrolidone. 8-10 mg of the powder sample was placed in the platinum sample pan. There is no drying step with this method. The RH is first maintained at 30% RH, then decreased to 10% RH, and then 3% RH using the criteria of moving on when the weight change of the sample was <0.001 wt % in 5 min or after reaching a maximum equilibration time of 60 minutes. […] Again, the attainment of equilibrium was assumed when the weight change of the sample was <0.001 wt % in 5 min or by a maximum equilibration time of 120 minutes.
DVS (Table 13): Water sorption and desorption were analyzed with a DVS-Resolution. The microbalance is calibrated with a 100 mg standard weight on a monthly basis. About 5 mg of API was added to a translucent sample pan and placed inside chamber A of the DVS-Resolution. Percent relative humidity was held at 0% for 1 hour, and increased to 90% in 10% increments, then ramped back to 0% in 10% increments.

[3] = Chemical stability (HPLC) after storage at 70° C.
Method: Sample Preparation (Table 12): Crystalline (S)-1′-(6-((2-amino-3-chloropyridin-4-yl)thio)-1,2,4-triazin-3-yl)-1,3-dihydrospiro[indene-2,4′-piperidin]-1-amine free base hemihydrate (Form 1)—Control: Compound (15.46 mg) was weighed into a 50 mL amber volumetric flask. Methanol (approximately 35 mL) was added to the flask, sonicated 4 minutes with intermittent swirling, equilibrated to room temperature, brought to volume with methanol and mixed well with repeated inversions of the flask. Crystalline (S)-1′-(6-((2-amino-3-chloropyridin-4-yl)thio)-1,2,4-triazin-3-yl)-1,3-dihydrospiro[indene-2,4′-piperidin]-1-amine free base hemihydrate (Form 1)—70° C./5% relative humidity (“RH”)/1 week: Compound (14.83 mg) was weighed into a 50 mL amber volumetric flask. Methanol (approximately 35 mL) was added to the flask, sonicated 4 minutes with intermittent swirling, equilibrated to room temperature, brought to volume with methanol and mixed well with repeated inversions of the flask. Crystalline (S)-1′-(6-((2-amino-3-chloropyridin-4-yl)thio)-1,2,4-triazin-3-yl)-1,3-dihydrospiro[indene-2,4′-piperidin]-1-amine free base hemihydrate (Form 1)—70° C./75% RH/1 week: Compound (14.99 mg) was weighed into a 50 mL amber volumetric flask. Methanol (approximately 35 mL) was added to the flask, sonicated 4 minutes with intermittent swirling, equilibrated to room temperature, brought to volume with methanol and mixed well with repeated inversions to the flask.
Chemical stability (HPLC) (Table 12): A Waters Acquity H-Class instrument was used with a Waters XSelect HSS T3 Column (100 angstrom, 4.6×150 mm, 5 μm). The column temperature was set to 20° C., the UV wavelength set to 254 nm, the injection volume was 10 μL, with a flow rate of 1.0 mL/min. 10 mM ammonium acetate adjusted to pH 4.8 was used as a mobile phase A, and acetonitrile was used as mobile phase B. The gradient method was set up to achieve 15% mobile phase B at 0 minutes, 95% mobile phase B at 17 minutes—held until 22 minutes, 15% mobile phase.
70° C./75% RH Sample: about 20 mg of crystalline anhydrous (S)-1′-(6-((2-amino-3-chloropyridin-4-yl)thio)-1,2,4-triazin-3-yl)-1,3-dihydrospiro[indene-2,4′-piperidin]-1-amine mono succinate salt Form 1 was placed in an open amber vial in the 70° C./75% RH chamber 70° C./5% RH Sample: about 20 mg crystalline anhydrous (S)-1′-(6-((2-amino-3-chloropyridin-4-yl)thio)-1,2,4-triazin-3-yl)-1,3-dihydrospiro[indene-2,4′-piperidin]-1-amine mono succinate salt Form 1 was placed in a closed amber vial with the cap taped in a 70° C. chamber with uncontrolled humidity […]

[4] = 70° C./75% RH, first of two lines so headed
[5] = printed 70° C./75% RH, second of two lines so headed

With `Nc1nccc(Sc2cnc(N3CCC4(CC3)Cc3ccccc3[C@H]4N)nn2)c1Cl.Nc1nccc(Sc2cnc(N3CCC4(CC3)Cc3ccccc3[C@H]4N)nn2)c1Cl.O` [Example 2, (S)-1′-(6-((2-amino-3-chloropyridin-4-yl)thio)-1,2,4-triazin-3-yl)-1,3-dihydrospiro[indene-2,4′-piperidin]-1-amine Free Base Hemihydrate (Form 1)] the “Physical Stability (70° C./75% RH)” value [1, 4] was “No change”, the “Physical Stability (70° C./75% RH)” value [1, 5] was “No change” and the Hygroscopity [2] was “Non-hygroscopic at 25 °C and exhibits less”. For the same compound, the “Chemical Stability (70° C./5% RH), decrease in purity” value ([3]; 70° C./5% RH, HPLC) was 0.25% decrease in purity and the “Chemical Stability (70° C./75% RH), decrease in purity” value ([3]; 70° C./75% RH, HPLC) was 0.09% decrease in purity.

For `Nc1nccc(Sc2cnc(N3CCC4(CC3)Cc3ccccc3[C@H]4N)nn2)c1Cl` [Example 3, (S)-1′-(6-((2-amino-3-chloropyridin-4-yl)thio)-1,2,4-triazin-3-yl)-1,3-dihydrospiro[indene-2,4′-piperidin]-1-amine Mono Succinate Salt Form 1], the “Physical Stability (70° C./75% RH)” value [1, 4] was “No change”, the “Physical Stability (70° C./75% RH)” value [1, 5] was “No change” and the Hygroscopity [2] was “not hygroscopic”. The “Hygroscopity, weight gain” value ([2]; up to 90% relative humidity) was 0.9%, the “Chemical Stability (70° C./5% RH), decrease in purity” value [3] was 0.13% decrease in purity and the “Chemical Stability (70° C./75% RH), decrease in purity” value [3] was 0.19% decrease in purity.
